Test results from ChEMBL document CHEMBL1201862, “PubChem BioAssay data set” (2004).
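Growth conditions: 96-well plates. Treatment: test compound, 48 hours, 5 concentrations. Analysis: linear interpolation between bracketing concentrations; unreached endpoints set to highest concentration. Abbreviation: GI50, concentration required for 50% inhibition of growth.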 Activity calls are given as the source filed them. No stated cut-off is given here; in the data, active = GI50 up to about 1.1 µM and inactive = higher.

What was measured:
Assay in all cases: NCI anticancer screen, dose series, 48 h
[1] = tested on: LXFL 529
[2] = tested on: SNB-78
[3] = tested on: HOP-18
[4] = tested on: DMS-273
[5] = tested on: XF498
[6] = tested on: M19-MEL
[7] = tested on: DMS-114
[8] = tested on: RXF 631
[9] = tested on: KM-20L2

SMILES: CCn1c2ccccc2c2ccc3c(c21)C(=O)C=CC3=O
- GI50 [1]: 1.93 µM (inactive)
- GI50 [2]: 22 µM (inactive)
- GI50 [3]: 11 µM (inactive)
- GI50 [4]: 17.2 µM (inactive)
- GI50 [5]: 3.84 µM (inactive)
- GI50 [6]: 10.7 µM (inactive)
- GI50 [7]: 6.65 µM (inactive)

SMILES: CC1(c2ccccc2)CC(c2cccc([N+](=O)[O-])c2)=NO1 (stereo not given)
- GI50 [1]: 94.2 µM (inactive)
- GI50 [8]: > 100 µM (inactive)
- GI50 [2]: > 100 µM (inactive)
- GI50 [3]: > 100 µM (inactive)
- GI50 [4]: > 100 µM (inactive)
- GI50 [6]: > 100 µM (inactive)
- GI50 [7]: 44.2 µM (inactive)

SMILES: CCN(CC)c1c(C(=O)/C=C/c2ccc(F)cc2)c(-c2ccccc2)nn(C)c1=O
- GI50 [1]: 4.6 µM (inactive)
- GI50 [2]: 14.4 µM (inactive)
- GI50 [3]: 21.2 µM (inactive)
- GI50 [4]: 6.62 µM (inactive)
- GI50 [9]: 11.8 µM (inactive)
- GI50 [6]: 6.64 µM (inactive)
- GI50 [7]: 5.32 µM (inactive)

SMILES: NC1=NN(c2ccccc2)C(=O)C1C(=O)C(=O)Nc1ccc(Cl)c(Cl)c1 (stereo not given)
- GI50 [8]: > 100 µM (inactive)
- GI50 [2]: > 100 µM (inactive)
- GI50 [3]: > 100 µM (inactive)
- GI50 [4]: > 100 µM (inactive)
- GI50 [9]: > 100 µM (inactive)
- GI50 [6]: > 100 µM (inactive)
- GI50 [7]: > 100 µM (inactive)

SMILES: COc1ccc2ccnc(Cc3ccc(OCc4ccccc4)c(OC)c3)c2c1
- GI50 [1]: 25.9 µM (inactive)
- GI50 [2]: 26.2 µM (inactive)
- GI50 [3]: 16.6 µM (inactive)
- GI50 [5]: 10.4 µM (inactive)
- GI50 [9]: 34.5 µM (inactive)

SMILES: COc1cc(C(CC(OC)OC)=C(C#N)C#N)cc(OC)c1OC
- GI50 [1]: 11.4 µM (inactive)
- GI50 [2]: 60.4 µM (inactive)
- GI50 [4]: 10.4 µM (inactive)
- GI50 [9]: 11.4 µM (inactive)
- GI50 [6]: 12.2 µM (inactive)
- GI50 [7]: 20.7 µM (inactive)

SMILES: C/C(CC(=O)Nc1cc(Cl)c(Cl)cc1Cl)=N\NS(=O)(=O)c1ccc(C)cc1
- GI50 [1]: 36.2 µM (inactive)
- GI50 [8]: 44 µM (inactive)
- GI50 [2]: 29 µM (inactive)
- GI50 [5]: 28.7 µM (inactive)
- GI50 [9]: 41.8 µM (inactive)
- GI50 [6]: 32.7 µM (inactive)
- GI50 [7]: 28.1 µM (inactive)

SMILES: CNC(=O)N(C)/N=N/CCCl
- GI50 [1]: > 100 µM (inactive)
- GI50 [4]: > 100 µM (inactive)
- GI50 [9]: > 100 µM (inactive)
- GI50 [6]: > 100 µM (inactive)
- GI50 [7]: > 100 µM (inactive)

SMILES: CCN(CC)C(=O)Cc1c(C(=O)N(CC)CC)c(=O)nc2sccn12
- GI50 [1]: > 100 µM (inactive)
- GI50 [3]: > 100 µM (inactive)
- GI50 [4]: > 100 µM (inactive)
- GI50 [5]: > 100 µM (inactive)
- GI50 [9]: > 100 µM (inactive)
- GI50 [6]: > 100 µM (inactive)
- GI50 [7]: > 100 µM (inactive)

SMILES: CON(C)C(=O)CCCO
- GI50 [1]: > 100 µM (inactive)
- GI50 [8]: > 100 µM (inactive)
- GI50 [3]: > 100 µM (inactive)
- GI50 [5]: > 100 µM (inactive)
- GI50 [9]: > 100 µM (inactive)
- GI50 [6]: > 100 µM (inactive)
- GI50 [7]: > 100 µM (inactive)

SMILES: c1ccc2c(NCCCCCCNc3cccc4ccccc34)cccc2c1
- GI50 [1]: > 100 µM (inactive)
- GI50 [8]: > 100 µM (inactive)
- GI50 [2]: > 100 µM (inactive)
- GI50 [3]: > 100 µM (inactive)
- GI50 [4]: > 100 µM (inactive)
- GI50 [5]: > 100 µM (inactive)
- GI50 [9]: > 100 µM (inactive)
- GI50 [6]: > 100 µM (inactive)
- GI50 [7]: 49.1 µM (inactive)

SMILES: COc1ccc(C(=O)O[C@H]2[C@@H]3C=CO[C@@H](OC4OC(CO)C(O)C(O)C4O)[C@@H]3[C@@]3(CO)O[C@@H]23)cc1O (stereo not given in full)
- GI50 [1]: > 100 µM (inactive)
- GI50 [8]: > 100 µM (inactive)
- GI50 [2]: > 100 µM (inactive)
- GI50 [4]: > 100 µM (inactive)
- GI50 [5]: > 100 µM (inactive)
- GI50 [9]: > 100 µM (inactive)
- GI50 [6]: > 100 µM (inactive)
- GI50 [7]: > 100 µM (inactive)

SMILES: Cc1c2ccccc2c(=O)n2c(-c3ccccn3)cccc12
- GI50 [2]: > 100 µM (inactive)
- GI50 [3]: > 100 µM (inactive)
- GI50 [4]: > 100 µM (inactive)
- GI50 [5]: > 100 µM (inactive)
- GI50 [9]: > 100 µM (inactive)
- GI50 [6]: 78 µM (inactive)
- GI50 [7]: > 100 µM (inactive)

SMILES: Cn1c2c(c3ccccc31)CCN(CCN1CCN(c3cccc(Cl)c3)CC1)C2=O
- GI50 [1]: 49 µM (inactive)
- GI50 [3]: > 100 µM (inactive)
- GI50 [4]: 49.5 µM (inactive)
- GI50 [5]: 3.38 µM (inactive)
- GI50 [9]: 32.4 µM (inactive)
- GI50 [6]: > 100 µM (inactive)
- GI50 [7]: 37.4 µM (inactive)

SMILES: O=C(Nc1ccccc1-c1nc2ccccc2[nH]c1=O)c1ccccc1
- GI50 [1]: 24.6 µM (inactive)
- GI50 [2]: 24 µM (inactive)
- GI50 [4]: 22.9 µM (inactive)
- GI50 [5]: 24.6 µM (inactive)
- GI50 [9]: 39.6 µM (inactive)
- GI50 [6]: 32.5 µM (inactive)
- GI50 [7]: 19.5 µM (inactive)

SMILES: C=CCC1C(=O)CC2(C)C(CC=C)C(=O)CC12C (stereo not given)
- GI50 [1]: > 100 µM (inactive)
- GI50 [8]: > 100 µM (inactive)
- GI50 [3]: > 100 µM (inactive)
- GI50 [4]: > 100 µM (inactive)
- GI50 [5]: > 100 µM (inactive)
- GI50 [9]: > 100 µM (inactive)
- GI50 [6]: > 100 µM (inactive)

SMILES: COC(=O)/C(=N\O)C(C(=O)C=C(C)C)C(=O)C(=O)Nc1ccccc1C (stereo not given)
- GI50 [1]: > 100 µM (inactive)
- GI50 [2]: > 100 µM (inactive)
- GI50 [3]: > 100 µM (inactive)
- GI50 [4]: > 100 µM (inactive)
- GI50 [5]: > 100 µM (inactive)
- GI50 [9]: > 100 µM (inactive)
- GI50 [6]: > 100 µM (inactive)
- GI50 [7]: > 100 µM (inactive)

SMILES: CS(=O)(=O)OCCN1CCN(C(=O)c2ccc(Cl)c3c(Nc4ccc(S(=O)(=O)N=C(N)N)cc4)c4ccccc4nc23)CC1
- GI50 [8]: > 100 µM (inactive)
- GI50 [4]: > 100 µM (inactive)
- GI50 [5]: > 100 µM (inactive)
- GI50 [9]: > 100 µM (inactive)
- GI50 [6]: > 100 µM (inactive)
- GI50 [7]: > 100 µM (inactive)

SMILES: C=Cc1ccc(C)[n+](C[Si](C)(C)O[Si](C)(C)C)c1
- GI50 [1]: > 100 µM (inactive)
- GI50 [8]: > 100 µM (inactive)
- GI50 [2]: > 100 µM (inactive)
- GI50 [4]: > 100 µM (inactive)
- GI50 [9]: > 100 µM (inactive)
- GI50 [7]: > 100 µM (inactive)

SMILES: CSc1ccc2c(cc1=O)[C@@H](NC(=O)c1ccc(Cl)cc1)CCc1cc(O)c(O)c(O)c1-2
- GI50 [1]: 33.3 µM (inactive)
- GI50 [2]: > 100 µM (inactive)
- GI50 [3]: > 100 µM (inactive)
- GI50 [4]: 50.6 µM (inactive)
- GI50 [9]: > 100 µM (inactive)
- GI50 [6]: 31.1 µM (inactive)
- GI50 [7]: 32.4 µM (inactive)

SMILES: Cc1c(O)c(=O)ccn1C1OC(CO)C(O)C1O (stereo not given)
- GI50 [1]: > 100 µM (inactive)
- GI50 [2]: > 100 µM (inactive)
- GI50 [4]: 82 µM (inactive)
- GI50 [5]: 46.2 µM (inactive)
- GI50 [9]: 45 µM (inactive)
- GI50 [6]: > 100 µM (inactive)

SMILES: Cc1cc2c(ccc3c(C)cc(=O)oc32)o1
- GI50 [1]: > 100 µM (inactive)
- GI50 [8]: > 100 µM (inactive)
- GI50 [2]: > 58.5 µM (inactive)
- GI50 [3]: > 55.6 µM (inactive)
- GI50 [4]: > 100 µM (inactive)
- GI50 [5]: 40.6 µM (inactive)
- GI50 [9]: > 100 µM (inactive)
- GI50 [6]: > 100 µM (inactive)
- GI50 [7]: > 100 µM (inactive)

SMILES: C/C1=C\[C@H](C)C[C@H](C)OC(=O)C[C@H](c2ccc(O)cc2)NC(=O)[C@@H](Cc2c(Br)[nH]c3ccccc23)N(C)C(=O)[C@H](C)NC(=O)[C@@H](C)C1 [JASPAMIDE]
- GI50 [1]: 0.293 µM (active)
- GI50 [8]: 0.298 µM (active)
- GI50 [2]: 0.374 µM (active)
- GI50 [4]: 0.308 µM (active)
- GI50 [5]: 0.226 µM (active)
- GI50 [9]: 0.34 µM (active)
- GI50 [6]: 0.789 µM (active)
- GI50 [7]: 0.516 µM (active)
